Data reported in ChEMBL document CHEMBL1201862, “PubChem BioAssay data set” (2004).
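Interpolation was linear, between the two tested concentrations surrounding the appropriate level; five concentrations were tested over 48 hours in 96-well plates. Abbreviation: GI50, concentration required for 50% inhibition of growth.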 Calls of active or inactive are those of the source. Cut-off read from the data, not from the text of the source: active = GI50 up to about 1.1 µM and inactive = higher.

Assays:
Assay in all cases: NCI-60 cell line screen, 48 h
MCF7 = system: MCF7
CAKI-1 = system: CAKI-1
ACHN = system: ACHN
A549 = system: A549
UO-31 = system: UO-31
UACC-62 = system: UACC-62
SK-MEL-28 = system: SK-MEL-28
HL-60 = system: HL-60
SK-OV-3 = system: SK-OV-3
OVCAR-4 = system: OVCAR-4
TK-10 = system: TK-10
SW-620 = system: SW-620
MOLT-4 = system: MOLT-4
A498 = system: A498
COLO 205 = system: COLO 205
M14 = system: M14
SF-539 = system: SF-539
K562 = system: K562
Malme-3M = system: Malme-3M
U-251 = system: U-251

Row | SMILES | GI50 (MCF7) | GI50 (CAKI-1) | GI50 (ACHN) | GI50 (A549) | GI50 (UO-31) | GI50 (UACC-62) | GI50 (SK-MEL-28) | GI50 (HL-60) | GI50 (SK-OV-3) | GI50 (OVCAR-4) | GI50 (TK-10) | GI50 (SW-620) | GI50 (MOLT-4) | GI50 (A498) | GI50 (COLO 205) | GI50 (M14) | GI50 (SF-539) | GI50 (K562) | GI50 (Malme-3M) | GI50 (U-251)
1 | COc1cc2nncc(SCc3ccc(Cl)c(Cl)c3)c2cc1OC | 89.5 µM (inactive) | > 73.8 µM (inactive) | > 48.4 µM (inactive) | > 82.2 µM (inactive) | > 100 µM (inactive) | 14 µM (inactive) | > 100 µM (inactive) | > 50.8 µM (inactive) | > 71.3 µM (inactive) | > 49.9 µM (inactive) | 82.4 µM (inactive) | > 100 µM (inactive) | > 100 µM (inactive) | > 100 µM (inactive) | > 100 µM (inactive) | > 35.6 µM (inactive) | 35.6 µM (inactive) | > 94.8 µM (inactive) | > 100 µM (inactive) | 50.5 µM (inactive)
2 | O=C1c2ccccc2C(=O)N1c1ccc(Cc2ccc(N3C(=O)c4ccccc4C3=O)cc2)cc1 | > 100 µM (inactive) | > 100 µM (inactive) | > 100 µM (inactive) | > 100 µM (inactive) | > 100 µM (inactive) | > 100 µM (inactive) | > 100 µM (inactive) | < 0.01 µM (active) | > 100 µM (inactive) | > 100 µM (inactive) | > 100 µM (inactive) | > 100 µM (inactive) | 3.02 µM (inactive) | > 100 µM (inactive) | > 100 µM (inactive) | > 100 µM (inactive) | > 80.9 µM (inactive) | 0.853 µM (active) | > 100 µM (inactive) | > 100 µM (inactive)
3 | CCOC(=O)c1cc2c(ccc3cc(C(=O)OCC)[nH]c32)[nH]1 | 50.2 µM (inactive) | 29 µM (inactive) | 55.5 µM (inactive) | 29.7 µM (inactive) | 48.6 µM (inactive) | 45.9 µM (inactive) | 8.36 µM (inactive) | > 10 µM (inactive) | > 100 µM (inactive) | 11.4 µM (inactive) | 50.2 µM (inactive) | 25.8 µM (inactive) | 35.8 µM (inactive) | 52 µM (inactive) | 65.3 µM (inactive) | 23 µM (inactive) | 12.3 µM (inactive) | 97.1 µM (inactive) | 43.3 µM (inactive) | 6.15 µM (inactive)
4 | NC(=O)N/N=C1/CCC(O)CC1CC(=O)O (stereo not given) | > 100 µM (inactive) | > 100 µM (inactive) | > 100 µM (inactive) | > 100 µM (inactive) | > 100 µM (inactive) | > 100 µM (inactive) | > 100 µM (inactive) | 2.7 µM (inactive) | > 100 µM (inactive) | > 100 µM (inactive) | > 100 µM (inactive) | > 100 µM (inactive) | > 100 µM (inactive) | > 100 µM (inactive) | > 100 µM (inactive) | > 100 µM (inactive) | > 100 µM (inactive) | > 100 µM (inactive) | > 100 µM (inactive) | > 100 µM (inactive)
5 | CC(C)NC(=O)OCc1c(COC(=O)NC(C)C)n(C)c2c1ccc1sccc12 | 13.5 µM (inactive) | 4.8 µM (inactive) | 7 µM (inactive) | > 36.6 µM (inactive) | 9.14 µM (inactive) | 10.2 µM (inactive) | 18.1 µM (inactive) | > 100 µM (inactive) | 24.9 µM (inactive) | 12.8 µM (inactive) | 18.6 µM (inactive) | 16.2 µM (inactive) | 10.3 µM (inactive) | 16.3 µM (inactive) | 13.6 µM (inactive) | 14.1 µM (inactive) | 12.4 µM (inactive) | 23.4 µM (inactive) | 3.15 µM (inactive) | 20.7 µM (inactive)
6 | C/C(=C/CO[Si](C)(C)C(C)(C)C)C(=O)N(C)c1ccccc1I | 16.9 µM (inactive) | 15.6 µM (inactive) | 17.3 µM (inactive) | 16.6 µM (inactive) | 14.8 µM (inactive) | 14.8 µM (inactive) | 17.9 µM (inactive) | 12.2 µM (inactive) | 18 µM (inactive) | 15.3 µM (inactive) | 18.7 µM (inactive) | 17.6 µM (inactive) | 18.2 µM (inactive) | 17.3 µM (inactive) | 18.5 µM (inactive) | 15.2 µM (inactive) | 17.2 µM (inactive) | 19.8 µM (inactive) | 14.3 µM (inactive) | 15.3 µM (inactive)
7 | COc1cccc(/C=N/NC(=O)CN(C)C)c1O | > 100 µM (inactive) | > 100 µM (inactive) | > 100 µM (inactive) | > 100 µM (inactive) | > 100 µM (inactive) | > 100 µM (inactive) | > 100 µM (inactive) | > 100 µM (inactive) | > 100 µM (inactive) | > 100 µM (inactive) | > 100 µM (inactive) | > 100 µM (inactive) | > 100 µM (inactive) | > 100 µM (inactive) | > 100 µM (inactive) | > 100 µM (inactive) | > 100 µM (inactive) | > 100 µM (inactive) | > 100 µM (inactive) | > 100 µM (inactive)
8 | COC(=O)CC1CN(C(=O)OCc2ccccc2)C(C)(C)O1 (stereo not given) | > 100 µM (inactive) | > 100 µM (inactive) | > 100 µM (inactive) | > 100 µM (inactive) | 38.6 µM (inactive) | > 100 µM (inactive) | 9.06 µM (inactive) | 89.9 µM (inactive) | > 100 µM (inactive) | > 100 µM (inactive) | 56.9 µM (inactive) | > 100 µM (inactive) | 80.2 µM (inactive) | > 100 µM (inactive) | > 100 µM (inactive) | > 100 µM (inactive) | > 100 µM (inactive) | > 100 µM (inactive) | 45.3 µM (inactive) | > 100 µM (inactive)
9 | N[C@@H]1c2c(Br)sc(Br)c2[C@H](O)[C@@H]1O | > 100 µM (inactive) | > 100 µM (inactive) | > 100 µM (inactive) | > 100 µM (inactive) | > 100 µM (inactive) | > 100 µM (inactive) | > 100 µM (inactive) | > 100 µM (inactive) | > 100 µM (inactive) | > 100 µM (inactive) | > 100 µM (inactive) | > 100 µM (inactive) | > 100 µM (inactive) | > 100 µM (inactive) | > 100 µM (inactive) | > 100 µM (inactive) | > 100 µM (inactive) | > 100 µM (inactive) | > 100 µM (inactive) | > 100 µM (inactive)
10 | CC(C)C[P+](c1ccccc1)(c1ccccc1)c1ccccc1 | 3.31 µM (inactive) | 10.5 µM (inactive) | 20.2 µM (inactive) | 6.22 µM (inactive) | 45.5 µM (inactive) | 3.85 µM (inactive) | 22.6 µM (inactive) | 2.29 µM (inactive) | 19.8 µM (inactive) | 12.1 µM (inactive) | 7.08 µM (inactive) | 5.87 µM (inactive) | 3.57 µM (inactive) | 32.1 µM (inactive) | 3.08 µM (inactive) | 8.41 µM (inactive) | 14.8 µM (inactive) | 2.28 µM (inactive) | 5.7 µM (inactive) | 3.12 µM (inactive)
11 | CCC1(C(=O)OC(C)(C)C)OC12C(C)CCCC2C (stereo not given) | 24.3 µM (inactive) | 33.7 µM (inactive) | 24.2 µM (inactive) | 34.8 µM (inactive) | 48.5 µM (inactive) | 50.4 µM (inactive) | > 100 µM (inactive) | 17.8 µM (inactive) | 73.6 µM (inactive) | 28.1 µM (inactive) | 41.3 µM (inactive) | 29.5 µM (inactive) | 18.7 µM (inactive) | 57.9 µM (inactive) | 23.9 µM (inactive) | 41.2 µM (inactive) | > 100 µM (inactive) | 21.8 µM (inactive) | 56.2 µM (inactive) | 42.9 µM (inactive)
12 | CSC(=S)OC1CC(n2cnc3c(NC(=O)c4ccccc4)ncnc32)OC1CO[Si](C)(C)C(C)(C)C (stereo not given) | 8.05 µM (inactive) | > 46.5 µM (inactive) | 13.8 µM (inactive) | 12.4 µM (inactive) | 4.4 µM (inactive) | 14.1 µM (inactive) | 33.3 µM (inactive) | 2.84 µM (inactive) | 36.6 µM (inactive) | 7.57 µM (inactive) | 35.6 µM (inactive) | 12.5 µM (inactive) | 2.03 µM (inactive) | 19.1 µM (inactive) | 5.85 µM (inactive) | 13.9 µM (inactive) | 36.3 µM (inactive) | 3.78 µM (inactive) | 21.1 µM (inactive) | 7.41 µM (inactive)
13 | COc1ccc(CC2COc3cc(OC)cc(OC)c3C2=O)cc1 (stereo not given) | 36 µM (inactive) | 17.5 µM (inactive) | 46.8 µM (inactive) | 33.9 µM (inactive) | 24.7 µM (inactive) | 32.8 µM (inactive) | 20.7 µM (inactive) | 13.2 µM (inactive) | 19.8 µM (inactive) | 17.2 µM (inactive) | 21.3 µM (inactive) | 29.8 µM (inactive) | 30.3 µM (inactive) | 79.3 µM (inactive) | 14.8 µM (inactive) | 16.4 µM (inactive) | 14.4 µM (inactive) | 31 µM (inactive) | 15.3 µM (inactive) | 37 µM (inactive)
14 | O=C1C(c2ccc([N+](=O)[O-])cc2)=C(Cl)C(=O)c2c(O)cccc21 | 18.8 µM (inactive) | 23.7 µM (inactive) | 18.5 µM (inactive) | 97.7 µM (inactive) | 13.5 µM (inactive) | 19.7 µM (inactive) | 18.9 µM (inactive) | 4.12 µM (inactive) | 50.8 µM (inactive) | 17.3 µM (inactive) | 20.2 µM (inactive) | 4.18 µM (inactive) | 3.66 µM (inactive) | 25.3 µM (inactive) | 17.3 µM (inactive) | 21 µM (inactive) | 20.2 µM (inactive) | 11.4 µM (inactive) | 19.6 µM (inactive) | 17.9 µM (inactive)
